Measured values from publication PMC11720011, “Single Disulfide Bond in Host Defense Thanatin Analog Peptides: Antimicrobial Activity, Atomic-Resolution Structures and Target Interactions” (International Journal of Molecular Sciences, 2024).
Converted amounts (≈) assume the structure as drawn. Residues, ends and D or L forms follow the SMILES beside them.

T1: LptAm, truncated functional deletion variant of the periplasmic LPS transport protein LptA of E. coli (E. coli, UniProt P0ADV1 28-159)
T1 construct: LptA of E. coli, residues 28-159 (LptAm); no removal of the His tag is told; also called His-tagged LptAm; source: E. coli BL21, purified (Ni-NTA, size-exclusion chromatography)
T1 sequence (looked up): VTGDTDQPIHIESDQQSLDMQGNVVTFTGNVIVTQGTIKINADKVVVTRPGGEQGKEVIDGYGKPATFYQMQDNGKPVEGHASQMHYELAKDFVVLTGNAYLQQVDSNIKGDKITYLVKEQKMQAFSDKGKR

B1: VF16QK, disulfide-bonded 16-residue thanatin analog peptide (peptide)
peptide: VPIIYCNRRTKKCKRF
HELM: PEPTIDE1{V.P.I.I.Y.C.N.R.R.T.[dK].K.C.K.R.F.[am]}$PEPTIDE1,PEPTIDE1,6:R3-13:R3$$$V2.0; N-terminus assumed
SMILES: CC[C@H](C)[C@H](NC(=O)[C@@H](NC(=O)[C@@H]1CCCN1C(=O)[C@@H](N)C(C)C)[C@@H](C)CC)C(=O)N[C@@H](Cc1ccc(O)cc1)C(=O)N[C@H]1CSSC[C@@H](C(=O)N[C@@H](CCCCN)C(=O)N[C@@H](CCCNC(=N)N)C(=O)N[C@@H](Cc2ccccc2)C(N)=O)NC(=O)[C@H](CCCCN)NC(=O)[C@@H](CCCCN)NC(=O)[C@H]([C@@H](C)O)NC(=O)[C@H](CCCNC(=N)N)NC(=O)[C@H](CCCNC(=N)N)NC(=O)[C@H](CC(N)=O)NC1=O
notes: Analog of thanatin of Podisus maculiventris (21 residues) without its five N-terminal residues; also called VK16QK; source: synthetic peptide; bought: GL Biochem, Shanghai

Experiments:
[1] = system: Klebsiella pneumoniae ATCC 13883 (KP); type: cell-based; details: ATCC 13883, 18 h
Method: (§1) Antibacterial activities of the VF16QK and VF16QK^Ser peptides (GL Biochem, Shanghai, China) were determined using the broth dilution method. Bacterial strains of Escherichia coli ATCC 25922 (EC); Salmonella enterica ATCC 14028 (SE); Klebsiella pneumoniae ATCC 13883 (KP); Acinetobacter baumannii ATCC BAA-1798 (AB) Streptococcus pyogenes ATCC 19615 (SP) and Enterococcus faecalis ATCC 29212 (EF) were used for this study.
(§2) Typically, overnight cultures of bacterial cells were grown to mid-log phase and diluted in 2X Mueller Hinton (MH) broth (Millipore-Sigma^TM, Saint Louis, MO, USA) to a final OD600 of 0.002. In a 96-well plate, 100 μL of the diluted bacterial solutions and 100 μL of the VF16QK and VF16QK^Ser peptides in concentrations ranging from 0.5 μM to 8 μM were incubated at 37 °C for 18 h.

[2] = system: ATCC strains of E. coli, K. pneumoniae, S. enterica, S. pyogenes and E. faecalis; type: cell-based; details: 18 h
Method: as §1, §2

[3] = system: Escherichia coli ATCC 25922 (EC); type: cell-based; details: ATCC 25922, 18 h
Method: as §1, §2

[4] = system: Streptococcus pyogenes ATCC 19615 (SP); type: cell-based; details: ATCC 19615, 18 h
Method: as §1, §2

[5] = system: Enterococcus faecalis ATCC 29212 (EF); type: cell-based; details: ATCC 29212, 18 h
Method: as §1, §2

[6] = system: LPS-outer membrane of E. coli cells; assay: Outer membrane permeabilization assay (NPN fluorescence); type: cell-based; details: E. coli cells OD600 ~0.5, 10 mM sodium phosphate, peptide 1 to 16 µM, excitation 350 nm, emission 390–450 nm; in words
Method: (§3) Figure 1 (A) Fluorescence emission spectra of NPN as a function of concentrations of the VF16QK and VF16QK^ser peptides in E. coli cell solutions. 10 μM of fluorescence probes were prepared in 10 mM of sodium phosphate buffer with a fixed bacterial cell density of 0.5. Fluorescence spectra were recorded with an excitation wavelength of 350 nm and emission of 390–450 nm. (B) Plot showing z potential changes of E. coli cells as a function of concentrations, 2 to 32 μM, of the VF16QK and VF16QK peptides.
VF16QK and VF16QK^Ser were assessed for their ability to permeabilize the LPS-outer membrane of E. coli cells by use of the fluorescence probe 1-N-phenylnapthylamine (NPN). Bacterial cells were prepared from a mid-log culture in 10 mM of sodium phosphate with an adjusted OD600 ~ 0.5. A basal fluorescence of […] NPN in bacterial suspension, in absence of peptide, was measured followed by sequential additions of peptides from 1 to 16 µM. Fluorescence experiments were conducted in a Cary Eclipse spectrophotometer (Varian, Palo Alto, CA, USA) using a 0.1 cm quartz cuvette. An excitation wavelength of 350 nm and emission was recorded from 390–450 nm.

[7] = biological target: T2, LptAm, the periplasmic LPS transport protein of E. coli (Escherichia coli, UniProt P0ADV1); assay: Isothermal titration calorimetry (ITC) with LptAm; type: binding; details: in words
T2 construct: His-tagged LptAm (residues 28–159) of E. coli; His-tag; made in house; host or cells: E. coli BL21
Method: Figure 2 Isothermal titration calorimetry (ITC) of binding interactions of VF16QK with (A) LptAm, the periplasmic LPS transport protein of E. coli, and (B) the LPS-outer membrane. LptAm-peptide ITC studies were carried out in 50 mM of sodium phosphate buffer and 150 mM of NaCl at pH 7.0 and 25 °C. LptAm proteins in sample cells were titrated with 2 μL aliquots of peptides and the heat exchange was measured. For LPS–peptide interactions, LPS in sample cells were titrated with 2 μL aliquots of peptides in 10 mM of sodium phosphate buffer, pH 7.0, 37 °C.
The binding interactions of the thanatin peptides VF16QK and VF16QK^Ser with the LPS-outer membrane and LptAm were determined using ITC. LPS and peptide samples were prepared in 10 mM of sodium phosphate buffer, pH 7.0. Typically, twenty injections, or 2.0 μL of peptides (1 mM in syringe), were titrated into the sample cell containing LPS ([…]) at 37 °C with a stirring speed of 750 rpm. […] ITC data were analyzed following single site binding in Microcal origin 5.0 software to determine the association constant (Ka) and change of enthalpy (ΔH). The dissociation constant (Kd), change of free energy (ΔG) and change of entropy (TΔS) were calculated as: Kd = 1/Ka, ΔG = ΔH − TΔS, respectively. […]

[8] = system: E. coli cells; assay: Zeta potential measurements (surface charge neutralization); type: cell-based; details: 10 mM sodium phosphate pH 7, peptide up to 32 μM, three replicates, in words
Method: as §3
Zeta potential measurements were performed in a Zeta Sizer Nano ZS (Malvern Instruments, Worcestershire, UK) instrument equipped with a 633 nm He laser. Mid-log phase E. coli cultures were centrifuged at 5000 rpm for 10 min and prepared in 10 mM of sodium phosphate buffer, pH 7. Z potential values of bacterial cell suspension were obtained from 1 to 32 μM of the peptides in zeta cells with gold electrodes. For individual measurement, 100 runs were carried out and three replicates were performed.

[9] = biological target: T1, LptAm, truncated functional deletion …; assay: ITC; peptide (250 uM in syringe, 20 injections of 2 uL) titrated into LptAm in the sample cell (25 mM [sic]); 50 mM sodium phosphate, 150 mM NaCl, pH 7.0, 25 °C; single site binding fit; details: both partners purified

Molecule | MIC, KP [1] [µM] | MIC values over Gram-negative and Gram-positive bacterial strains [2] [µM] | MIC, EC [3] [µM] | MIC, SP [4] [µM] | MIC, EF [5] [µM] | NPN fluorescence emission (LPS-outer membrane permeabilization) [6] | nature of binding to LptAm (heat of exchange) [7] | neutralization of surface charge (zeta potential) [8] | Kd [9] [nM] | dH [9] [kcal/mol]
CC[C@H](C)[C@H](NC(=O)[C@@H](NC(=O)[C@@H]1CCCN1C(=O)[C@@H](N)C(C)C)[C@@H](C)CC)C(=O)N[C@@H](Cc1ccc(O)cc1)C(=O)N[C@H]1CSSC[C@@H](C(=O)N[C@@H](CCCCN)C(=O)N[C@@H](CCCNC(=N)N)C(=O)N[C@@H](Cc2ccccc2)C(N)=O)NC(=O)[C@H](CCCCN)NC(=O)[C@@H](CCCCN)NC(=O)[C@H]([C@@H](C)O)NC(=O)[C@H](CCCNC(=N)N)NC(=O)[C@H](CCCNC(=N)N)NC(=O)[C@H](CC(N)=O)NC1=O [VF16QK] (HELM PEPTIDE1{V.P.I.I.Y.C.N.R.R.T.[dK].K.C.K.R.F.[am]}$PEPTIDE1,PEPTIDE1,6:R3-13:R3$$$V2.0) | 1 to 2 | 1 to 4 | 1 to 4 | 1 (≈ 2.02 µg/mL) | 1 (≈ 2.02 µg/mL) | – | – | – | – | –
CC[C@H](C)[C@H](NC(=O)[C@@H](NC(=O)[C@@H]1CCCN1C(=O)[C@@H](N)C(C)C)[C@@H](C)CC)C(=O)N[C@@H](Cc1ccc(O)cc1)C(=O)N[C@@H](CO)C(=O)N[C@@H](CC(N)=O)C(=O)N[C@@H](CCCNC(=N)N)C(=O)N[C@@H](CCCNC(=N)N)C(=O)N[C@H](C(=O)N[C@H](CCCCN)C(=O)N[C@@H](CCCCN)C(=O)N[C@@H](CO)C(=O)N[C@@H](CCCCN)C(=O)N[C@@H](CCCNC(=N)N)C(=O)N[C@@H](Cc1ccccc1)C(N)=O)[C@@H](C)O [VF16QK^Ser] (HELM PEPTIDE1{V.P.I.I.Y.S.N.R.R.T.[dK].K.S.K.R.F.[am]}$$$$V2.0; N-terminus and C-terminus assumed) | – | > 16 | – | – | – | significantly diminished LPS-outer membrane permeabilization | endothermic binding | less effective | – | –
B1 | – | – | – | – | – | – | – | – | 400 | -10.2
